Measured values from publication PMC10590756, “Glutarate regulates T cell metabolism and anti-tumour immunity” (Nature Metabolism, 2023).

What was measured:
CD8^+ T cells = assay: Western blot of PDHK1, phosphorylated PDHc and PDHc; assay type: cell-based, human; conditions: 500 µM DEG
Experimental: Cell pellets were lysed by either urea-Tris buffer (8 M urea, 50 mM Tris-HCl (pH 7.5), 150 mM β-mercaptoethanol), sonicated twice for 45 s intercalated with 1 min incubation on ice and centrifuged at 14,000g, 4 °C for 15 min or by RIPA Lysis and Extraction Buffer (catalogue no. 89900, Thermo Fisher Scientific), according to the manufacturer’s instructions. Nuclear and cytosolic fractions were prepared from cells using the NE-PER kit (catalogue no. 78833, Thermo Fisher Scientific). Histones were extracted with the Histone Extraction Kit (catalogue no. ab113476, Abcam). Proteins were separated by SDS–PAGE and transferred to polyvinylidene fluoride (PVDF) membranes. Total protein stain was obtained using non-stain protein labelling reagent (catalogue no. A44448, Thermo Fisher Scientific). Membranes were then blocked in 5% milk prepared in PBS plus 0.05% Tween-20, incubated with primary antibodies overnight at 4 °C and horseradish peroxidase (HRP)-conjugated secondary antibodies (catalogue nos. HAF008 and HAF007, R&D Systems) for 1 h the next day. After enhanced chemiluminescence (ECL) exposure (catalogue no. GERPN2106, Sigma-Aldrich), membranes were imaged using an iBrightCL1000 (Thermo Fisher Scientific). The following primary antibodies from Cell Signaling Technology were used at a concentration of 1:1,000: anti-PDHK1 (catalogue no. 3820); anti-β-actin (catalogue no. 12262S); anti-PPIB (catalogue no. 43603); anti-OGDH (catalogue no. 26865S); anti-phospho-PDH α1 (catalogue no. 37115); anti-SIRT5 (catalogue no. 8779S); anti-H3 (catalogue no. 4499); anti-H3K4me2 (catalogue no. 9725); anti-H3K4me3 (catalogue no. 9751); anti-H3K9me2 (catalogue no. 4658); anti-H3K9me3 (catalogue no. 13969); anti-H3K27me2 (catalogue no. 9728); anti-H3K27me3 (catalogue no. 9733); anti-H3K36me2 (catalogue no. 2901); anti-H3K36me3 (catalogue no. 4909); anti-H3K79me2 (catalogue no. 5427); anti-H3K79me3 (catalogue no. 4360); anti-H3k9ac (catalogue no. 9649); anti-H3K18ac (catalogue no. 13998); and anti-H3k27ac (catalogue no. 8173). […]

B16F10-OVA cancer cells = assay: In vitro cytotoxicity of OT1 CD8^+ T cells; assay type: cell-based, mouse; conditions: T cells cultured 7 days with 500 µM DEG
Experimental: Ten thousand B16F10-OVA or SKOV3 cells were seeded per well in 96-well plates and cocultured for a minimum of 14 h with varying ratios of mouse CD8^+ OT1 or human CD8^+RQR8^+ HER2 CAR T cells, respectively. T cells had been treated with or without DEG 7 days before the assay. Wells were washed twice with PBS to remove T cells and the number of remaining target cells was determined by culturing with 10 µg ml^−1 resazurin (catalogue no. R7017, Sigma-Aldrich) and measuring the fluorescence signal in a plate reader. Cytotoxicity was calculated relative to wells with no T cells added. Ten thousand Raji cells were cocultured for a minimum of 14 h with CD19 CAR T cells previously activated for 7 days and cultured with or without DEG. Cytotoxicity was assessed by flow cytometry using the ratio of live Raji cells to CountBright Absolute Counting Beads (catalogue no. C36950, Thermo Fisher Scientific). To determine specific cytotoxicity, data were normalized to the cytotoxicity of the vector-controlled transduced CD8 T cells of the respective donor.

human CD8^+ T cells = assay: Markers of T cell differentiation and exhaustion by flow cytometry; assay type: cell-based
Experimental: Single-cell suspensions were stained with LIVE/DEAD Fixable Near-IR Dead Cell Stain Kit (catalogue no. 10119, Thermo Fisher Scientific) followed by surface and intracellular staining with fluorochrome-labelled antibodies (Supplementary Tables 1 and 2). Staining of cytoplasmic and nuclear antigens was performed using the Cytofix/Cytoperm Fixation/Permeabilization Kit (catalogue no. 554714, BD Biosciences) and the Transcription Factor Buffer Set (catalogue no. 562725, BD Biosciences), respectively. For the proliferation assays, cells were loaded with CellTrace Violet (catalogue no. C34557, Thermo Fisher Scientific) according to the manufacturer’s instructions. Samples were acquired on an Aurora (Cytek Biosciences).

[1] = 10 days of DEG treatment, 500 µM

Compound: CCOC(=O)CCCC(=O)OCC [DEG, Diethyl glutarate]
- PDHK1 protein levels (CD8^+ T cells): not significantly altered
- PDHc phosphorylation levels (CD8^+ T cells): did not observe any changes
- protein expression of the PDHc (CD8^+ T cells): did not alter
- killing of B16F10-OVA cancer cells by OT1 CD8^+ T cells (B16F10-OVA cancer cells): more proficient at killing
- expression of LAG3 (human CD8^+ T cells; [1]): downregulated
- expression of TIM3 (human CD8^+ T cells; [1]): downregulated
- expression of TOX (human CD8^+ T cells; [1]): downregulated
- expression of granzyme B (GZMB) (human CD8^+ T cells; DEG 500 µM, 7-10 days): increases
